IC50 and EC50 data for 34 compounds are collected here from patent US5545640A, “Protease inhibiting succinic acid derivatives” (Bio-Mega/Boehringer Ingeleheim Research Inc., priority 1995, dated 1996).

The target of one test is T1, HIV protease (Human immunodeficiency virus type 1 group M subtype B, UniProt P04585).
T1 construct: an HIV-encoded enzyme known as HIV protease
In words: biochemical. Particulars: read-out: IC50 (concentration causing 50% inhibition of HIV protease). The text has this: The procedure is based on the capacity of the test compound to inhibit enzymatic cleavage by HIV protease of a decapeptide (the substrate) having an amino acid sequence which includes a known HIV protease cleavage site of a HIV polyprotein; see H. G. Krausslich et al., Proc. Natl. Acad. Sci. USA, 86, 807 (1989).
Anderson, S. Rakhit and C. Yoakim in the European patent application 443 560, published Aug. 28, 1991.
For `CCC(CC)NC(=O)C[C@@H](C(=O)NC[C@@H](O)[C@H](Cc1ccccc1)NC(=O)[C@@H](NC(=O)c1cnc2ccccc2n1)C(C)C)C(C)(C)C` [Entry 31], the IC50 came to 3 nM. Regarding `CCC(CC)NC(=O)C[C@@H](C(=O)NC[C@@H](O)[C@H](Cc1ccccc1)NC(=O)[C@H](CC(N)=O)NC(=O)C1Cc2ccccc2N1)C(C)(C)C` (stereo partly shown) [Entry 30], the IC50 stood at 3 nM.

Staying with this test, now noted: recombinant HIV protease; decapeptide substrate; HPLC assay; read-out: IC50 (concentration causing 50% inhibition of HIV protease).
Consider `CCC(CC)NC(=O)CC(C(=O)NC[C@@H](O)[C@H](Cc1ccccc1)NC(=O)[C@H](CC(N)=O)NC(=O)c1ccc2ccccc2n1)C(C)C` (stereo partly shown) [Entry 50], for which the IC50 was 9 nM. The same measure, in the same setting: next, `CCC(CC)NC(=O)C[C@@H](C(=O)NC[C@@H](O)[C@H](Cc1ccccc1)NC(=O)[C@H](CC(=O)O)NC(=O)OC(C)(C)C)C(C)(C)C` [Entry 2]: 90 nM. On the same count and under the same terms, next, `CCC(CC)NC(=O)C[C@@H](C(=O)NC[C@@H](O)[C@H](Cc1ccccc1)NC(=O)[C@H](CC(N)=O)NC(=O)c1ccc2ccccc2n1)C(C)(C)C` [Entry 35]: 3 nM; `CCC(CC)NC(=O)C[C@@H](C(=O)NC[C@@H](O)[C@H](Cc1ccccc1)NC(=O)[C@H](CC(N)=O)NC(=O)CCc1ccccc1)C(C)(C)C` [Entry 9]: 15 nM; `CCC(CC)NC(=O)C[C@@H](C(=O)NC[C@@H](O)[C@H](Cc1ccccc1)NC(=O)COc1c(C)cc(C)cc1C)C(C)(C)C` [Entry 70]: 4.6 nM. On to `CCC(CC)NC(=O)C[C@@H](C(=O)NC[C@@H](O)[C@H](Cc1ccccc1)NC(=O)[C@H](CC(N)=O)NC(=O)c1cc(OC)c2ccccc2n1)C(C)(C)C` [Entry 25], for which the IC50 was 4 nM. With `CCC(CC)NC(=O)C[C@@H](C(=O)NC[C@@H](O)[C@H](Cc1ccccc1)NC(=O)c1cccc(N)c1C)C(C)(C)C` [Entry 69], the IC50 was 5.3 nM.

In the case of `CCC(CC)NC(=O)C[C@@H](C(=O)NC[C@@H](O)[C@H](Cc1ccccc1)NC(=O)[C@@H](NC(=O)OC(C)(C)C)C(C)(C)C)C(C)(C)C` [Entry 1], the IC50 came out at 100 nM.

Take `CCC(CC)NC(=O)[C@H](CC(=O)NC[C@@H](O)[C@H](Cc1ccccc1)NC(=O)[C@@H](NC(=O)OCc1ccccc1)C(C)C)C(C)(C)C` [Entry 61]: the IC50 was found to be 13 nM. On to `CCC(CC)NC(=O)C[C@@H](C(=O)NC[C@@H](O)[C@H](Cc1ccccc1)NC(=O)[C@H](CC(N)=O)NC(=O)c1nccc2ccccc12)C(C)(C)C` [Entry 7], for which the IC50 was 20 nM. Consider `CCC(CC)NC(=O)C[C@@H](C(=O)NC[C@@H](O)[C@H](Cc1ccccc1)NC(=O)[C@H](CC(N)=O)NC(=O)C1Cc2ccccc2CN1)C(C)(C)C` (stereo partly shown) [Entry 24], for which the IC50 turned out to be 4 nM. Same read-out and setting: to `CCC(CC)NC(=O)C[C@@H](C(=O)NC[C@@H](O)[C@H](Cc1ccccc1)NC(=O)[C@H](CC(N)=O)NC(=O)c1cnc2ccccc2c1)C(C)(C)C` [Entry 39] belongs 2 nM; to `CCC(CC)NC(=O)C[C@@H](C(=O)NC[C@@H](O)[C@H](Cc1ccccc1)NC(=O)[C@@H](NC(=O)OC(C)(C)C)[C@@H](C)C(=O)O)C(C)(C)C` [Entry 16], 7 nM. Same read-out and setting: to `CCC(CC)NC(=O)C[C@@H](C(=O)NC[C@@H](O)[C@H](Cc1ccccc1)NC(=O)[C@@H](NC(=O)c1ccc2ccccc2n1)C1(C(=O)O)CCCC1)C(C)(C)C` [Entry 33] belongs 3 nM; to `CCC(CC)NC(=O)C[C@@H](C(=O)NC[C@@H](O)[C@H](Cc1ccccc1)NC(=O)[C@H](CC(N)=O)NC(=O)CCN1CCCCC1)C(C)(C)C` [Entry 3], 88 nM; to `CCC(CC)NC(=O)C[C@@H](C(=O)NC[C@@H](O)[C@H](Cc1ccccc1)NC(=O)[C@H](CCC(N)=O)NC(=O)OCc1ccccc1)C(C)(C)C` [Entry 8], 19 nM. On the same count and under the same terms, next, `CCC(CC)NC(=O)C[C@H](C(=O)NC[C@@H](O)[C@H](Cc1ccccc1)NC(=O)[C@@H](NC(=O)OCc1ccccc1)C(C)(C)C)C(C)(C)C` [Entry 60]: 29 nM; `CCC(CC)NC(=O)C[C@@H](C(=O)NC[C@@H](O)[C@H](Cc1ccccc1)NC(=O)[C@H](CC(N)=O)NC(=O)CNc1ccccc1)C(C)(C)C` [Entry 19]: 5 nM. As to `CCC(CC)NC(=O)C[C@@H](C(=O)NC[C@@H](O)[C@H](Cc1ccccc1)NC(=O)[C@@H](NC(=O)c1ccc2ccccc2n1)[C@@H](C)C(=O)O)C(C)(C)C` [Entry 22], the IC50 was 5 nM. With `CCC(CC)NC(=O)C[C@@H](C(=O)NC[C@@H](O)[C@H](Cc1ccccc1)NC(=O)[C@H](CC(N)=O)NC(=O)c1ccc2ncccc2c1)C(C)(C)C` [Entry 38], the IC50 stood at 2 nM. Turning to `CCC(CC)NC(=O)C(CC(=O)NC[C@@H](O)[C@H](Cc1ccccc1)NC(=O)[C@@H](NC(=O)OCc1ccccc1)C(C)C)CC(C)(C)C` (stereo partly shown) [Entry 54], the IC50 was found to be 50 nM.

With `CCCC(CCC)NC(=O)C1CCCCC1C(=O)NC[C@@H](O)[C@H](Cc1ccccc1)NC(=O)[C@@H](NC(=O)OCc1ccccc1)C(C)C` (stereo partly shown) [Entry 56], the IC50 is 29 nM. Same read-out and setting: to `CC(C)[C@H](NC(=O)OCc1ccccc1)C(=O)N[C@@H](Cc1ccccc1)[C@H](O)CNC(=O)C1CCCCC1C(=O)NCC(C)(C)C` (stereo partly shown) [Entry 55] belongs 66 nM; to `CCC(CC)NC(=O)C[C@@H](C(=O)NC[C@@H](O)[C@H](Cc1ccccc1)NC(=O)[C@H](CC(N)=O)NC(=O)C1Cc2ccccc2CN1)C(C)(C)C` (stereo partly shown) [Entry 5], 32 nM. Consider `CCC(CC)NC(=O)CC(C(=O)NC[C@@H](O)[C@H](Cc1ccccc1)NC(=O)[C@H](CC(N)=O)NC(=O)OCc1ccccc1)C(C)C` (stereo partly shown) [Entry 48], for which the IC50 is 32 nM. The same measure, in the same setting: next, `CC(C)OC(=O)C[C@@H](C(=O)NC[C@@H](O)[C@H](Cc1ccccc1)NC(=O)[C@@H](NC(=O)c1ccc2ccccc2n1)[C@@H](C)O)C(C)(C)C` [Entry 58, 3(R)-tert-butyl-4-{2(R)-hydroxy-4-phenyl-3(S)-{[N-(2-quinolylcarbonyl)threonyl]-amino}butylamino}-4-oxobutyric acid isopropyl ester]: 46 nM. On the same count and under the same terms, next, `CCC(CC)NC(=O)C1CCCCC1C(=O)NC[C@@H](O)[C@H](Cc1ccccc1)NC(=O)[C@@H](NC(=O)OCc1ccccc1)C(C)C` (stereo partly shown) [Entry 57]: 14 nM.

`CCC(CC)OC(=O)CC(C(=O)NC[C@@H](O)[C@H](Cc1ccccc1)NC(=O)[C@H](CC(N)=O)NC(=O)OCc1ccccc1)C(C)(C)C` (stereo partly shown) [Entry 47]: the IC50 was found to be 51 nM. On the same count and under the same terms, next, `CCC(CC)NC(=O)C[C@@H](C(=O)NC[C@@H](O)[C@H](Cc1ccccc1)NC(=O)[C@H](CC(N)=O)NC(=O)CCCCc1ccccc1)C(C)(C)C` [Entry 12]: 13 nM. On the same count and under the same terms, to `CCC(CC)NC(=O)C[C@@H](C(=O)NC[C@@H](O)[C@H](Cc1ccccc1)NC(=O)[C@@H](NC(=O)OC(C)(C)C)[C@@H](C)C(=O)OCc1ccccc1)C(C)(C)C` [Entry 4] belongs 80 nM. Same read-out and setting: next, `CCC(CC)NC(=O)C[C@@H](C(=O)NC[C@@H](O)[C@H](Cc1ccccc1)NC(=O)[C@H](CC(N)=O)NC(=O)NCc1ccccc1)C(C)(C)C` [Entry 14]: 11 nM; `CCC(CC)NC(=O)C[C@@H](C(=O)NC[C@@H](O)[C@H](Cc1ccc(O)cc1)NC(=O)[C@@H](NC(=O)c1ccc2ccccc2n1)[C@@H](C)O)C(C)(C)C` [Entry 62, N^1-(1-ethylpropyl)-N^4 -{3(S)-{[N-(2-quinolylcarbonyl)-threonyl]amino}-2(R)-hydroxy-4-(4-hydroxyphenyl)butyl}-3(R)-tert-butylbutanediamide]: 61 nM.

The subject of a further test is HIV (H9/HTLV-IIIB stock) in C8166 cells. In words: Cell culture assay: inhibition of syncytia formation in HIV-infected C8166 cells (antiviral, anti-HIV effect). It is filed as cell-based, HIV (HTLV-IIIB); human T4 cell line. The settings on record: Human immunodeficiency virus 1; C8166 cells; H9/HTLV-IIIB, 50 times TCID50; 72 h, 37°; read-out: EC50 (concentration causing 50% inhibition of syncytia formation). The text has this:
Typical of such procedures are those described by S. Harada and N. Yamamoto, Jpn. J. Cancer Res. (Gann), 76, 432 (1985), and S. Harada et al., Science, 229, 563 (1985). An assay based on the latter procedures is described in the examples hereinafter.
In addition, Tables 1 to 8 list the results for exemplified compounds of formula 1 when assayed for antiviral (anti-HIV) effects according to the following protocol which is based on a cell culture assay previously described by Harada et al., supra. Transformed cells are used because of the rapidity with which HIV will replicate in the cells.
1. The test compound is dissolved in dimethylsulfoxide to a concentration of 5 mg/mL. The resultant solution .can be stored at 4° until use.
2. The resultant solution is diluted in RPMI 1640 (Gibco Laboratories, St. Lawrence, Mass., USA) to four times (4×) the final concentration which is to be tested. Once diluted in RPMI 1640, the solution is used in the cell culture assay within 4 h.
3. The latter solution (50 μL) is added to triplicate wells of a 96 well flat bottomed microtiter plate. RPMI (50 μL) also is added to control wells.
4. C8166 cells (5×10^4) in 50 μL of HEPES-buffered RPMI 1640 (pH=7.2), 10% heat inactivated fetal calf serum (FCS), […] gentamicin (complete media) are added to all wells.
5. Fifty times TCID50 of H9/HTLV-IIIB stock (stored in liquid nitrogen as cell culture supernatant in 50% FCS) in 100 μL of complete media is added to all wells. The infectious titer of the virus stocks is as previously determined by end point dilution on C8166 cells. The titer of stocks are stable for 6-12 months when stored at -193°.
6. Microtiter plates are then placed on level shelves of a 37°, 5% CO2 humidified incubator for 72 h.
7. Plates are then removed and centers of syncytia are counted in each well by low power phase contrast light microscopy. […] Control wells should have between 25 and 75 centers of syncytia per well.
8. Percent inhibition of syncytia formation is calculated by the formula: [formula]
The concentration of the test compound which causes a 50% inhibition of syncytia formation, i.e. the EC50, is determined by using the technique of serial dilution of the working solution at step 3 and graphically plotting the observed percent inhibition of syncytia formation against the various concentrations of the test compound.
In the following tables, assay results are listed for the exemplified compounds from the aforementioned recombinant HIV protease HPLC assay under the heading IC50 (nM) and from the cell culture assay under the heading EC50 (nM). Note that for some of the compounds listed in tables, the EC50 's have not been determined (ND).
For the compound `CCC(CC)NC(=O)C[C@@H](C(=O)NC[C@@H](O)[C@H](Cc1ccccc1)NC(=O)[C@H](CC(N)=O)NC(=O)c1ccc2ccccc2n1)C(C)(C)C` [Entry 35], the EC50 was determined as 130 nM. Same read-out and setting: next, `CCC(CC)NC(=O)C[C@@H](C(=O)NC[C@@H](O)[C@H](Cc1ccccc1)NC(=O)[C@H](CC(N)=O)NC(=O)CCc1ccccc1)C(C)(C)C` [Entry 9]: 1900 nM. On the same count and under the same terms, next, `CCC(CC)NC(=O)C[C@@H](C(=O)NC[C@@H](O)[C@H](Cc1ccccc1)NC(=O)COc1c(C)cc(C)cc1C)C(C)(C)C` [Entry 70]: 1200 nM; `CCC(CC)NC(=O)C[C@@H](C(=O)NC[C@@H](O)[C@H](Cc1ccccc1)NC(=O)[C@H](CC(N)=O)NC(=O)c1cc(OC)c2ccccc2n1)C(C)(C)C` [Entry 25]: 164 nM. Same read-out and setting: to `CCC(CC)NC(=O)C[C@@H](C(=O)NC[C@@H](O)[C@H](Cc1ccccc1)NC(=O)c1cccc(N)c1C)C(C)(C)C` [Entry 69] belongs 258 nM; to `CCC(CC)NC(=O)C[C@@H](C(=O)NC[C@@H](O)[C@H](Cc1ccccc1)NC(=O)[C@@H](NC(=O)c1cnc2ccccc2n1)C(C)C)C(C)(C)C` [Entry 31], 25 nM.
